Test results reported in ChEMBL document CHEMBL1158521, “Photoactive ligands probing the sweet taste receptor. Design and synthesis of highly potent diazirinyl D-phenylalanine derivatives” (Bioorg Med Chem Lett, 2010).
Active and inactive are the calls of the source. No cut-off for these calls is given here.

Experiments:
T1R2/T1R3 (Homo sapiens) [1] = target: T1, T1R2/T1R3 (Homo sapiens) (UniProt Q8TE23+Q7RTX0); test: Activity at human T1R2/T1R3 expressed in HEK293T cells co-expressing Galpha-16-gust44 assessed as F340/F380 ratio at 1.25 mM in presence of T1R2/T1R3 antagonist lactisole; format: functional, cell-based; conditions: HEK-293T
T1R2/T1R3 (Homo sapiens) [2] = target: T1, T1R2/T1R3 (Homo sapiens); test: Activity at human T1R2/T1R3 expressed in HEK293T cells co-expressing Galpha-16-gust44 assessed as F340/F380 ratio at 1.25 mM; format: cell-based; conditions: HEK-293T

Activity (T1R2/T1R3 (Homo sapiens) [1])	Activity (T1R2/T1R3 (Homo sapiens) [2])	Compound
inactive	Active	N[C@H](Cc1ccc(C2(C(F)(F)F)N=N2)cc1)C(=O)O
inactive	Active	N[C@H](Cc1cccc(C2(C(F)(F)F)N=N2)c1)C(=O)O
